Data: patent US20240116832A1, “INHIBITORS OF SOIL NITRIFICATION AND PROCESSES TO PREVENT SAME” (Tessenderlo Group NV, priority 2019, published 2024)

Test system: soil nitrification: conversion of ammonium-N(NH4+) into nitrate-N(NO3−), Tujunga loamy sand
Conditions: for nitrification inhibition (slowing the conversion of ammonium-N into nitrate-N), in words: text on Experiments 1 and 2
Source text: Two soils were used in this experiment, a Tujunga loamy sand (thermic Typic Xeropsamments) collected in Dinuba, California along with a Clarion fine loam (mesic Typic Hapludolls), collected in Boone, Iowa.
Each soil was collected by hand from the top 15 mm of the soil profile and allowed to air-dry. Both soils were hand screened to remove large clumps and rocks that may have interfered with the experiment. Soil samples were taken before the start of the experiment and analyzed to assess the initial nutrient content and pH of the soil.
The experiments were made up of numerous individual plastic containers that each represented one (1) replicate of each fertilizer treatment and soil. All experiments were arranged as a completely randomized design consisting of 12-20 fertilizer treatments, two soils, with six replicates.
To begin the experiment, 200 g of the dried and screened soil was added to a 709 mL sealable plastic container. Distilled water was added to each container to bring the moisture level up to what would be considered optimal field moisture. It was important to determine this for each soil separately to ensure neither soil was too dry or too moist. This volume ranged from 15-25 ml per container with the Clarion soil being the highest. Once the appropriate amount of water was applied to each container, they were thoroughly stirred to ensure uniform mixing and to eliminate any clumps.
After the soil containers were filled and moistened, the individual liquid fertilizer treatments were prepared in a 100 ml Erlenmeyer flask. All treatments were applied as liquids to ensure uniform mixing and accurate applications. For some of the treatments a 20%-N urea solution was used as the primary nitrogen source. […]
All fertilizer treatments were made to the soil surface in each container using a micropipette at a nitrogen rate of 134.7 kg ha^−1 calculated on the surface area of each container which equals 125.8 cm^2. […]
Soil samples were initially taken at one (1) day after treatment (DAT). […] The difference in mass is recorded and used in later calculations. […]

Structure (SMILES)	nitrification inhibition (slowing the conversion of ammonium-N into nitrate-N), in words	"nitrate levels" (nitrite+nitrate levels) in the soil (after 8 weeks)
N.N.O=S(=O)(O)O [ammonium sulfates, ammonium sulfate]	did not work	–
NC(N)=O [unprotected urea, Urea]	–	≥ 300 ppm
O=S([O-])O.[K+] [potassium bisulfite]	did not work	–
